Results taken from patent publication US5734012A, “Cyclic motilin-like polypeptides with gastrointestinal motor stimulating activity” (Ohmeda Pharmaceutical Products Division Inc., priority 1996, dated 1998).
Positions of bridges follow the written chain, without caps; N, C: chain ends. Non-standard residues stand in square brackets, D forms with d. Residues, ends and D or L forms follow the SMILES beside them. *: point of attachment. X1 = C[N+](C)(C)[C@@H](Cc1ccccc1)C(=O)*; NMeF = CN[C@@H](Cc1ccccc1)C(=O)O

Experiments:
[1] = in vivo; cited from earlier work
[2] = target: rabbit duodenal smooth muscle strip (Oryctolagus cuniculus, UniProt G1T803); assay: Rabbit duodenal smooth muscle strip tissue bath assay (contractility); assay type: cell-based; conditions: negative logarithm of dose giving 50% of maximal response to motilin; isotonic contraction of rabbit duodenum segments
Method: The experimental protocol consisted of an equilibration period of 1 hour; a challenge with 10^-4 M acetylcholine followed by a wash-out period; a cumulative dose-response curve of a compound with, at the end, the addition of 10^-7 M motilin; and finally 10^-4 M acetylcholine. If the final response to 10^-4 M acetylcholine differed by more than 5% from the initial response, the results were discarded.

[3] = In vitro stability testing in 2% hog kidney homogenate; assay type: in vitro ADME; conditions: pig, kidney or brush border membranes, pH 7
Method: Like most small linear polypeptides, motilin is believed to be metabolized by the brush border cells of the kidney. Therefore, kidney homogenate was chosen as the model system for assessing the relative in vivo biostability of the peptides of this invention. All peptides to be studied were incubated in hog kidney (Pel Freeze, Inc., Rogers, Ark.) (2% w/v; final volume=4 mls; buffer=HEPES pH 7.0) at 25° C. […] In order to determine suitable incubation times and sampling intervals, two experiments were conducted with each polypeptide. The first run served as a rough estimate of peptide stability. All sampling was performed in duplicate. Sample volume was 180 μl. Sample clean-up was performed by addition of 20 μl of 100% TCA (final volume=200 μl; final TCA concentration=10%). The sample was vortexed from 5 to 10 seconds to ensure equilibration, then centrifuged to spin out the precipitated proteins. Analysis was carried out on a Waters HPLC system with autoinjector, a 5 μVydac C-18 analytical column, and a Waters 481 UV detector set at 214 nm. Injection volume was 80 μl. Initial solvent conditions were 20% acetonitrile / 80% (0.1%) TFA in Milli-Q water with a 35 minute gradient running to 63% acetonitrile / 37% (0.1%) TFA at 1 ml/min. Polypeptide substrate and metabolite peaks were ratioed to the internal standard and the duplicate sample ratios were averaged. The average ratio for the peptide substrate was expressed as a percentage and plotted versus time. First-order kinetics was assumed for data treatment. The rate of disappearance of the substrate was calculated using the Enzfitter program (Biosoft). Relative half-lives were determined from the relationship: […]

[4] = target: T1, motilin receptor (Oryctolagus cuniculus, UniProt G1T803); assay: Motilin receptor binding affinity (displacement of [125I-Tyr7,Nle13]motilin(porcine)); set-up: species or system rabbit; conditions: negative logarithm of concentration displacing 50% of [125I-Tyr7,Nle13]motilin(porcine) bound to rabbit antral smooth muscle membranes; read-out: pIC50 (converted)
T1 construct: from tissue; host or cells: rabbit antral smooth muscle membranes
Method: The motilin receptor binding affinity of the peptides of this invention was determined by using the general procedure of Bormans, Peeters and Vantrappen, Regul. […] Fitting was performed using the iterative least-squares procedure of the SAS-software package (SAS Institute, Inc., Cary, N.C., USA).

Sequence of rabbit duodenal smooth muscle strip (G1T803 1-400): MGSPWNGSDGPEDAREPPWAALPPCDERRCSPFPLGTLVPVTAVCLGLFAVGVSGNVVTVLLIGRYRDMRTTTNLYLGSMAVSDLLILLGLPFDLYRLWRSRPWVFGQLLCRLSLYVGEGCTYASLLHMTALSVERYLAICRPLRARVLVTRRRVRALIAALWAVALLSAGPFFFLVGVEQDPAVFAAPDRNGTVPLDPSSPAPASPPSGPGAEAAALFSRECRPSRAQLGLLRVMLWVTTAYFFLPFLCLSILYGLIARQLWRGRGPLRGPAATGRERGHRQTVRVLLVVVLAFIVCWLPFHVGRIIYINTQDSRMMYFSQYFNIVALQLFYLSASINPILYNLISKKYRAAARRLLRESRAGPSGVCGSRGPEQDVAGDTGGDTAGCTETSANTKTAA
T1 sequence (G1T803 1-400): as above

Row | pEC50 [2] | half-life at 0.5 mg/ml [3] | IC50 [4] | Structure (SMILES) | half-life (t1/2) [1]
1 | 7.96 | 21 min | 0.631 nM | CC[C@H](C)[C@H](NC(=O)[C@@H]1CCCN1C(=O)[C@@H](NC(=O)[C@H](Cc1ccccc1)NC)C(C)C)C(=O)N[C@@H](Cc1ccccc1)C(=O)N[C@H](C(=O)N[C@@H](Cc1ccc(O)cc1)C(=O)NCC(=O)N[C@@H](CCC(=O)O)C(=O)N[C@H]1CCC(=O)NCCCC[C@@H](C(=O)N[C@@H](CCCCN)C(N)=O)NC(=O)[C@H](CC(C)C)NC(=O)[C@H](CCCNC(=N)N)NC(=O)[C@H](C)NC1=O)[C@@H](C)O [SEQ ID NO:10, cyclo^10,14 [N-MePhe^1,Glu^10,Ala^11,Leu^13,Lys^14,Lys^15]pMOT(1-15) amide] (H-[NMeF]VPIFTYGEEARLKK-NH2; lactam 10-14) | –
2 | 7.72 | 85 min | 2.88 nM | CC[C@H](C)[C@H](NC(=O)[C@@H]1CCCN1C(=O)[C@@H](NC(=O)[C@H](Cc1ccccc1)[N+](C)(C)C)C(C)C)C(=O)N[C@@H](Cc1ccccc1)C(=O)N[C@H](C(=O)N[C@@H](Cc1ccc(O)cc1)C(=O)NCC(=O)N[C@@H](CCC(=O)O)C(=O)N[C@H]1CC(=O)NCCCC[C@@H](C(=O)N[C@@H](CCCCN)C(N)=O)NC(=O)[C@H](CC(C)C)NC(=O)[C@@H](CCCNC(=N)N)NC(=O)[C@H](C)NC1=O)[C@@H](C)O [SEQ ID NO:19, cyclo^10,14 [ME3 N^+ Phe^1,Asp^10,Ala^11,D-Arg^12,Leu^13,Lys^14,Lys^15]pMOT(1-15) amide] (X1-VPIFTYGEDA[dR]LKK-NH2; lactam 9-13) | –
3 | 7.89 | 437 min | 1.23 nM | CC[C@H](C)[C@H](NC(=O)[C@@H]1CCCN1C(=O)[C@@H](NC(=O)[C@H](Cc1ccccc1)[N+](C)(C)C)C(C)C)C(=O)N[C@@H](Cc1ccccc1)C(=O)N[C@H](C(=O)N[C@@H](Cc1ccc(O)cc1)C(=O)NCC(=O)N[C@@H](CCC(=O)O)C(=O)N[C@H]1CC(=O)NCCCC[C@@H](C(=O)N[C@H](CCCCN)C(N)=O)NC(=O)[C@H](CC(C)C)NC(=O)[C@H](CCCNC(=N)N)NC(=O)[C@H](C)NC1=O)[C@@H](C)O [SEQ ID NO:11, cyclo^10,14 [Me3 N^+ Phe^1,Asp^10,Ala^11,Leu^13,Lys^14,D-Lys^15]pMOT(1-15) amide] (X1-VPIFTYGEDARLK[dK]-NH2; lactam 9-13) | –
4 | 8.73 | 35 min | 0.912 nM | CC[C@H](C)[C@H](NC(=O)[C@@H]1CCCN1C(=O)[C@@H](NC(=O)[C@H](Cc1ccccc1)NC)C(C)C)C(=O)N[C@@H](Cc1ccccc1)C(=O)N[C@H](C(=O)N[C@@H](Cc1ccc(O)cc1)C(=O)NCC(=O)N[C@@H](CCC(=O)O)C(=O)N[C@H]1CCC(=O)NCCCC[C@@H](C(N)=O)NC(=O)[C@H](CC(C)C)NC(=O)[C@H](CCCNC(=N)N)NC(=O)[C@H](CCC(N)=O)NC1=O)[C@@H](C)O [SEQ ID NO:22, cyclo^10,14 [N-MePhe^1,Glu^10,Leu^13,Lys^14]pMOT(1-14) amide] (H-[NMeF]VPIFTYGEEQRLK-NH2; lactam 10-14) | –
5 | 7.34 | 49 min | 1.55 nM | CC[C@H](C)[C@H](NC(=O)[C@@H]1CCCN1C(=O)[C@@H](NC(=O)[C@H](Cc1ccccc1)[N+](C)(C)C)C(C)C)C(=O)N[C@@H](Cc1ccccc1)C(=O)N[C@H](C(=O)N[C@@H](Cc1ccc(O)cc1)C(=O)NCC(=O)N[C@@H](CCC(=O)O)C(=O)N[C@H]1CCC(=O)NCCCC[C@@H](C(=O)N[C@@H](CCCCN)C(N)=O)NC(=O)[C@H](CC(C)C)NC(=O)[C@@H](CCCNC(=N)N)NC(=O)[C@H](C)NC1=O)[C@@H](C)O [SEQ ID NO:20, cyclo^10,14 [Me3 N^+ Phe^1,Glu^10,Ala^11,D-Arg^12,Leu^13,Lys^14,Lys^15]pMOT(1-15) amide] (X1-VPIFTYGEEA[dR]LKK-NH2; lactam 9-13) | –

The next lines start with the molecule.

Row | Structure (SMILES) | pEC50 [2] | half-life at 0.5 mg/ml [3] | IC50 [4] | half-life (t1/2) [1]
6 | CC[C@H](C)[C@H](NC(=O)[C@@H]1CCCN1C(=O)[C@@H](NC(=O)[C@@H](N)Cc1ccccc1)C(C)C)C(=O)N[C@@H](Cc1ccccc1)C(=O)N[C@H](C(=O)N[C@@H](Cc1ccc(O)cc1)C(=O)NCC(=O)N[C@@H](CCC(=O)O)C(=O)N[C@@H](CC(C)C)C(=O)N[C@@H](CCC(N)=O)C(=O)N[C@@H](CCCNC(=N)N)C(=O)N[C@@H](CCSC)C(=O)N[C@@H](CCC(N)=O)C(=O)N[C@@H](CCC(=O)O)C(=O)N[C@@H](CCCCN)C(=O)N[C@@H](CCC(=O)O)C(=O)N[C@@H](CCCNC(=N)N)C(=O)N[C@@H](CC(N)=O)C(=O)N[C@@H](CCCCN)C(=O)NCC(=O)N[C@@H](CCC(N)=O)C(=O)O)[C@@H](C)O [motilin] | – | – | – | 4.5 min
7 | CC[C@H](C)[C@H](NC(=O)[C@@H]1CCCN1C(=O)[C@@H](NC(=O)[C@H](Cc1ccccc1)NC)C(C)C)C(=O)N[C@@H](Cc1ccccc1)C(=O)N[C@H](C(=O)N[C@@H](Cc1ccc(O)cc1)C(=O)NCC(=O)N[C@@H](CCC(=O)O)C(=O)N[C@H]1CC(=O)NCCCC[C@@H](C(N)=O)NC(=O)[C@H](CC(C)C)NC(=O)[C@H](CCCNC(=N)N)NC(=O)[C@H](C)NC1=O)[C@@H](C)O [SEQ ID NO:17, cyclo^10,14 [N-MePhe^1,Asp^10,Ala^11,Leu^13,Lys^14]pMOT(1-14) amide] (H-[NMeF]VPIFTYGEDARLK-NH2; lactam 10-14) | 7.95 | 31 min | 0.575 nM | –
8 | CC[C@H](C)[C@H](NC(=O)[C@@H]1CCCN1C(=O)[C@@H](NC(=O)[C@H](Cc1ccccc1)NC)C(C)C)C(=O)N[C@@H](Cc1ccccc1)C(=O)N[C@H](C(=O)N[C@@H](Cc1ccc(O)cc1)C(=O)NCC(=O)N[C@@H](CCC(=O)O)C(=O)N[C@H]1CCC(=O)NCCCC[C@@H](C(=O)N[C@@H](CCCCN)C(N)=O)NC(=O)[C@H](CC(C)C)NC(=O)[C@@H](CCCNC(=N)N)NC(=O)[C@H](C)NC1=O)[C@@H](C)O [SEQ ID NO:15, cyclo^10,14 [N-MePhe^1,Glu^10,Ala^11,D-Arg^12,Leu^13,Lys^14,Lys^15]pMOT(1-15) amide] (H-[NMeF]VPIFTYGEEA[dR]LKK-NH2; lactam 10-14) | 7.68 | 39 min | 1.02 nM | –
9 | CC[C@H](C)[C@H](NC(=O)[C@@H]1CCCN1C(=O)[C@@H](NC(=O)[C@H](Cc1ccccc1)[N+](C)(C)C)C(C)C)C(=O)N[C@@H](Cc1ccccc1)C(=O)N[C@H](C(=O)N[C@@H](Cc1ccc(O)cc1)C(=O)NCC(=O)N[C@@H](CCC(=O)O)C(=O)N[C@H]1CC(=O)NCCCC[C@@H](C(=O)N[C@@H](CCCCN)C(N)=O)NC(=O)[C@H](CC(C)C)NC(=O)[C@H](CCCNC(=N)N)NC(=O)[C@H](C)NC1=O)[C@@H](C)O [SEQ ID NO:18, cyclo^10,14 [Me3 N^+ Phe^1,Asp^10,Ala^11,Leu^13,Lys^14,Lys^15]pMOT(1-15) amide] (X1-VPIFTYGEDARLKK-NH2; lactam 9-13) | 7.72 | 413 min | 1.78 nM | –
10 | CC[C@H](C)[C@H](NC(=O)[C@@H]1CCCN1C(=O)[C@@H](NC(=O)[C@H](Cc1ccccc1)NC)C(C)C)C(=O)N[C@@H](Cc1ccccc1)C(=O)N[C@H](C(=O)N[C@@H](Cc1ccc(O)cc1)C(=O)NCC(=O)N[C@@H](CCC(=O)O)C(=O)N[C@H]1CC(=O)NCCCC[C@@H](C(=O)N[C@@H](CCCCN)C(N)=O)NC(=O)[C@H](CC(C)C)NC(=O)[C@@H](CCCNC(=N)N)NC(=O)[C@H](C)NC1=O)[C@@H](C)O [SEQ ID NO:12, cyclo^10,14 [N-MePhe^1,Asp^10,Ala^11,D-Arg^12,Leu^13,Lys^14,Lys^15]pMOT(1-15) amide] (H-[NMeF]VPIFTYGEDA[dR]LKK-NH2; lactam 10-14) | 7.81 | 16 min | 1.74 nM | –
